Consider 22 compounds from patent publication US7235674B2, “Substituted coumarins and quinolines and analogs as activators of caspases and inducers of apoptosis and the use thereof” (Cytovia, Inc., priority 2001, dated 2007).

For test [1], the system named is Human breast cancer cell line T-47D. The test can be described thus: Caspase cascade activation assay (N-(Ac-DEVD)-N'-ethoxycarbonyl-R110 fluorogenic substrate) in T-47D cells. It is filed as cell-based. To be noted: T-47D cells, 24 h incubation; for EC50 / EC50 (nM) T-47D: caspase cascade activation potency; for Caspase activity (Ratio) T-47D: ratio of net RFU of test compound to control, 3 h substrate reading. Here is the method:
(§1) Human breast cancer cell lines T-47D and ZR-75-1 were grown according to media component mixtures designated by American Type Culture Collection +10% FCS (Invitrogen Corporation), in a 5% CO2 −95% humidity incubator at 37° C. T-47D and ZR-75-1 cells were maintained at a cell density between 30 and 80% confluency at a cell density of 0.1 to 0.6×10^6 cells/mL. Cells were harvested at 600×g and resuspended at 0.65×10^6 cells/mL into appropriate media +10% FCS. An aliquot of 45 μl of cells was added to a well of a 96-well microtiter plate containing 5 μl of a 10% DMSO in RPMI-1640 media solution containing 0.16 to 10 μM of 3-cyano-7-methoxy-4-(3-bromo-4,5-dimethoxyphenyl)-2-oxo-2H-chromene (Example 1) or other test compound (0.016 to 1 μM final). An aliquot of 45 μl of cells was added to a well of a 96-well microtiter plate containing 5 μl of a 10% DMSO in RPMI-1640 media solution without test compound as the control sample. The samples were mixed by agitation and then incubated at 37° C. for 24 h in a 5% CO2 −95% humidity incubator. After incubation, the samples were removed from the incubator and 50 μl of a solution containing 20 μM of N-(Ac-DEVD)-N′-ethoxycarbonyl-R110 fluorogenic substrate (SEQ ID NO:1) (Cytovia, Inc.; WO99/18856), 20% sucrose (Sigma), 20 mM DTT (Sigma), 200 mM NaCl (Sigma), 40 mM Na PIPES buffer pH 7.2 (Sigma), and 500 μg/ml lysolecithin (Calbiochem) was added. The samples were mixed by agitation and incubated at room temperature. Using a fluorescent plate reader (Model 1420 Wallac Instruments), an initial reading (T=0) was made approximately 1-2 min after addition of the substrate solution, employing excitation at 485 nm and emission at 530 nm, to determine the background fluorescence of the control sample. After the 3 h incubation, the samples were read for fluorescence as above (T=3 h).
(§2) The Relative Fluorescence Unit values (RFU) were used to calculate the sample readings as follows: RFU(T=3 h)−Control RFU(T=0)=Net RFU(T=3 h)
(§3) The activity of caspase cascade activation was determined by the ratio of the net RFU value for 3-cyano-7-methoxy-4-(3-bromo-4,5-dimethoxy-phenyl)-2-oxo-2H-chromene, or other test compound, to that of control samples. The EC50 (nM) was determined by a sigmoidal dose-response calculation (Prism 2.0, GraphPad Software Inc.).

Test [2] relates to Human breast cancer cell line ZR-75-1. As to the kind of experiment: Caspase cascade activation assay (N-(Ac-DEVD)-N'-ethoxycarbonyl-R110 fluorogenic substrate) in ZR-75-1 cells. The class given is cell-based. The note with it: ZR-75-1 cells, 24 h incubation; for EC50 / EC50 (nM) ZR-75-1: caspase cascade activation potency; for Caspase activity (Ratio) ZR-75-1: ratio of net RFU of test compound to control, 3 h substrate reading. Here is the method: as §1, §2, §3

In general, EC50 refers to the concentration giving half of the maximal effect. Read a high EC50 as weaker potency. For the compound `COc1ccc2c(-c3cc(Br)c(OC)c(OC)c3)c(C#N)c(=O)oc2c1` [Example 1, 3-Cyano-7-methoxy-4-(3-bromo-4,5-dimethoxyphenyl)-2-oxo-2H-chromene], the EC50 turned out to be 257 nM in test [1] (Homo sapiens, T47D) and 97 nM in test [2] (Homo sapiens). In test [1], the “Caspase activity (Ratio) T-47D” value was 6.2. In addition, the “Caspase activity (Ratio) ZR-75-1” value in test [2] came to 4.2.
The matching figures for `COc1cc(OC)cc(-c2c(C#N)c(=O)oc3cc(OC)ccc23)c1` [Example 2, 3-Cyano-7-methoxy-4-(3,5-dimethoxyphenyl)-2-oxo-2H-chromene]: 44 nM, 11 nM, 4.1 and 5.4.
For the compound `N#Cc1c(-c2ccccc2)c2ccccc2oc1=N` [Example 3, 3-Cyano-2-imino-4-phenyl-2H-chromene], in test [1], the “EC50 (nM) T-47D” value was “Inactive” and the “Caspase activity (Ratio) T-47D” value is “Inactive”. In addition, in test [2], the “EC50 (nM) ZR-75-1” value is on record as “Inactive” and the “Caspase activity (Ratio) ZR-75-1” value is “Inactive”.
For the compound `N#Cc1c(-c2ccccc2)c2ccccc2oc1=O` [Example 4, 3-Cyano-4-phenyl-2-oxo-2H-chromene], in test [1], the “EC50 (nM) T-47D” value is listed as “Inactive” and the “Caspase activity (Ratio) T-47D” value is recorded as “Inactive”. Also, in test [2], the “EC50 (nM) ZR-75-1” value is reported as “Inactive” and the “Caspase activity (Ratio) ZR-75-1” value was “Inactive”.
As to `COc1cccc(C2=c3ccc4c(c3OC(=O)C2C#N)C=CN=4)c1` (centres unmarked) [Example 5, 3-Cyano-4-(3-methoxyphenyl)-2-oxo-2H-pyrrolo[2,3-h]chromene], the EC50 is 200 nM in test [1] (Homo sapiens, T47D) and 111 nM in test [2] (Homo sapiens). Besides, the “Caspase activity (Ratio) T-47D” value in test [1] came to 2.0. For the same compound, the “Caspase activity (Ratio) ZR-75-1” value in test [2] is listed as 10.4.
On to `N#Cc1c(-c2ccccc2)c2ccccc2[nH]c1=O` [Example 6, 3-Cyano-4-phenyl-quinolin-1H-2-one], for which, in test [1], the EC50 was found to be 4800 nM and the “Caspase activity (Ratio) T-47D” value is given as 9.1. Further, in test [2], the midpoint of the response, the EC50, lay at 882 nM and the “Caspase activity (Ratio) ZR-75-1” value was 10.6.
`COc1cccc(-c2c(C#N)c(=O)[nH]c3cc(Cl)ccc23)c1` [Example 8, 7-Chloro-3-cyano-4-(3-methoxy-phenyl)-quinolin-1H-2-one]: in test [1], the concentration giving a half-maximal response (EC50) was 1170 nM and the “Caspase activity (Ratio) T-47D” value came out at 4.1. In addition, in test [2], the EC50 worked out at 878 nM and the “Caspase activity (Ratio) ZR-75-1” value is given as 10.1.
In the same order, the values of `COc1ccc2c(-c3cc(Br)c(OC)c(OC)c3)c(C#N)c(=O)[nH]c2c1` [Example 9, 4-(3-Bromo-4,5-dimethoxy-phenyl)-3-cyano-7-methoxy-quinolin-1H-2-one] are 4410 nM, 4.4, 2050 nM and 7.4.
Consider `COc1cc(OC)cc(C2=c3ccc4c(c3OC(=O)C2C#N)C=CN=4)c1` (centres unmarked) [Example 16, 4-(3,5-Dimethoxyphenyl)-3-cyano-2-oxo-2H-pyrrolo[2,3-h]chromene], for which the EC50 was 106 nM in test [1] (Homo sapiens, T47D) and 174 nM in test [2] (Homo sapiens). Besides, the “Caspase activity (Ratio) T-47D” value in test [1] came to 3.1. In addition, the “Caspase activity (Ratio) ZR-75-1” value in test [2] is 3.6.
Regarding `COc1cccc(-c2c(C#N)c(=O)oc3cc(OC)ccc23)c1` [Example 17, 3-Cyano-4-(3-methoxy-phenyl)-7-methoxy-2-oxo-2H-chromene], the concentration for a half-maximal effect (EC50) came to 99.7 nM in test [1] (Homo sapiens, T47D) and 43.4 nM in test [2] (Homo sapiens). The “Caspase activity (Ratio) T-47D” value in test [1] worked out at 8.9. Also, the “Caspase activity (Ratio) ZR-75-1” value in test [2] turned out to be 11.7.
In the same order, the values of `COc1cc(-c2c(C#N)c(=O)oc3cc(N)ccc23)cc(Br)c1OC` [Example 18, 7-Amino-4-(3-bromo-4,5-dimethoxyphenyl)-3-cyano-2-oxo-2H-chromene] are 1490 nM, 320 nM, 2.2 and 7.1.
Regarding `COc1cc(-c2c(C#N)c(N)nc3c2CCc2ccccc2-3)cc(Br)c1OC` [Example 19, 2-Amino-4-(3-bromo-4,5-dimethoxyphenyl)-3-cyano-5,6-dihydro-benzo[h]quinoline], the half-maximal effective concentration (EC50) in test [1] (Homo sapiens, T47D) amounted to 4060 nM; in test [2] (Homo sapiens) it was 556 nM. Moreover, in test [1], the “Caspase activity (Ratio) T-47D” value was determined as 5.4. Also, in test [2], the “Caspase activity (Ratio) ZR-75-1” value was 7.9.
With `COc1cc(-c2cc3c(c4c2=C(C#N)C(=O)O4)OC(C)(C)CC=3)cc(Br)c1OC` [Example 20, 4-(3-Bromo-4,5-dimethoxyphenyl)-3-cyano-7,8-dihydro-8,8-dimethyl-2-oxo-2H-furo[3,2-h]chromene], in test [1], the “EC50 (nM) T-47D” value is on record as “Inactive” and the “Caspase activity (Ratio) T-47D” value came out at 1.6. Also, the response in test [2] (Homo sapiens) was half-maximal at 1000 nM (EC50). The “Caspase activity (Ratio) ZR-75-1” value in test [2] is 3.1.
Take `COc1cc(-c2c(C#N)c(=O)oc3cc(N(C)C)ccc23)cc(Br)c1OC` [Example 21, 3-Cyano-7-dimethylamino-4-(3-bromo-4,5-dimethoxyphenyl)-2-oxo-2H-chromene]: the concentration for a half-maximal effect (EC50) in test [1] (Homo sapiens, T47D) came out at 546 nM; in test [2] (Homo sapiens) it was 279 nM. Further, the “Caspase activity (Ratio) T-47D” value in test [1] is reported as 5.8. The “Caspase activity (Ratio) ZR-75-1” value in test [2] was found to be 9.1.
Consider `COc1cc(OC)cc(-c2c(C#N)c(=O)oc3cc(N)ccc23)c1` [Example 22, 7-Amino-3-cyano-4-(3,5-dimethoxyphenyl)-2-oxo-2H-chromene], for which, in test [1], the “EC50 (nM) T-47D” value is “Inactive” and the “Caspase activity (Ratio) T-47D” value is 1.5. Also, in test [2] (Homo sapiens), it took 400 nM to reach a half-maximal effect (EC50). For the same compound, the “Caspase activity (Ratio) ZR-75-1” value in test [2] was 3.4.
As for `COc1cc(OC)cc(-c2c(C#N)c(=O)oc3cc(N(C)C)ccc23)c1` [Example 23, 3-Cyano-7-dimethylamino-4-(3,5-dimethoxyphenyl)-2-oxo-2H-chromene], the half-maximal effective concentration (EC50) was 456 nM in test [1] (Homo sapiens, T47D) and 429 nM in test [2] (Homo sapiens). Also, the “Caspase activity (Ratio) T-47D” value in test [1] turned out to be 2.3. Besides, the “Caspase activity (Ratio) ZR-75-1” value in test [2] worked out at 7.2.
`COc1ccc(OC)c(C2=c3ccc4c(c3OC(=O)C2C#N)C=CN=4)c1` (centres unmarked) [Example 24, 3-Cyano-4-(2,5-dimethoxyphenyl)-2-oxo-2H-pyrrolo[2,3-h]chromene]: the 50% effective concentration (EC50) in test [1] (Homo sapiens, T47D) amounted to 585 nM; in test [2] (Homo sapiens), 405 nM. Moreover, the “Caspase activity (Ratio) T-47D” value in test [1] was determined as 4.5. Further, the “Caspase activity (Ratio) ZR-75-1” value in test [2] was 7.1.
Turning to `CNc1ccc2c(-c3cc(Br)c(OC)c(OC)c3)c(C#N)c(=O)oc2c1` [Example 25, 4-(3-Bromo-4,5-dimethoxy-phenyl)-3-cyano-7-methylamino-2-oxo-2H-chromene], the EC50 turned out to be 1090 nM in test [1] (Homo sapiens, T47D) and 356 nM in test [2] (Homo sapiens). Besides, the “Caspase activity (Ratio) T-47D” value in test [1] worked out at 4.9. Besides, in test [2], the “Caspase activity (Ratio) ZR-75-1” value is 6.1.
For `COc1cc(-c2c(C#N)c(=N)oc3cc(N)ccc23)cc(Br)c1OC` [Example 26, 7-Amino-4-(3-bromo-4,5-dimethoxy-phenyl)-3-cyano-2-imino-2H-chromene], in test [1], the “EC50 (nM) T-47D” value is “Inactive” and the “Caspase activity (Ratio) T-47D” value came out at 1.9. In test [2] (Homo sapiens), the concentration giving a half-maximal response (EC50) was 2770 nM. Besides, the “Caspase activity (Ratio) ZR-75-1” value in test [2] amounted to 8.8.
The compound `COc1cc(-c2c(C#N)c(=O)oc3cc(Cl)ccc23)cc(Br)c1OC` [Example 28, 4-(3-Bromo-4,5-dimethoxy-phenyl)-7-chloro-3-cyano-2-oxo-2H-chromene] displayed an EC50 in test [1] (Homo sapiens, T47D) of 2960 nM. Besides, in test [1], the “Caspase activity (Ratio) T-47D” value came out at 2.2.
Regarding `COc1cccc(-c2c(C#N)c(=N)sc3cc(OC)ccc23)c1` [Example 30, 2-Imino-3-cyano-7-methoxy-4-(3′-methoxy-phenyl)-2H-thiochromene], in test [1], the “EC50 (nM) T-47D” value is “Inactive” and the “Caspase activity (Ratio) T-47D” value is reported as “Inactive”. In addition, in test [2], the “EC50 (nM) ZR-75-1” value is “Inactive” and the “Caspase activity (Ratio) ZR-75-1” value was “Inactive”.
The compound `COc1cc(-c2c(C#N)c(=N)oc3cc(N(C)C)ccc23)cc(Br)c1OC` [Example 31, 2-Imino-3-cyano-7-dimethylamino-4-(3-bromo-4,5-dimethoxyphenyl)-2H-chromene] returned an EC50 in test [1] (Homo sapiens, T47D) of 2500 nM.
